The record followed here is ChEMBL document CHEMBL1131910, “Exploratory solid-phase synthesis of factor Xa inhibitors: discovery and application of p3-heterocyclic amides as novel types of non-basic arginine surrogates” (Bioorg Med Chem Lett, 1999).

The structures appear in SMILES notation.

Test [1] concerns the target T1, Coagulation factor X (Homo sapiens, UniProt P00742). In words: In vitro inhibition of human Factor Xa.
The target of test [2] is T2, Plasminogen (Homo sapiens, UniProt P00747). Nature of the test: In vitro inhibition of human thrombolytic protease Plasmin.
The target in test [3] is T3, Prothrombin (Homo sapiens, UniProt P00734). Nature of the test: In vitro inhibition of human Thrombin (FIIa).
The target in test [4] is T4, Serine protease 1 (Homo sapiens, UniProt P07477). In words: In vitro inhibition of human trypsin.
The target in test [5] is T3, Prothrombin. Nature of the test: In vitro inhibition against human Thrombin ( FIIa) was evaluated; Inactive.
The target in test [6] is T2, Plasminogen. Nature of the test: In vitro inhibition against human thrombolytic protease Plasmin was evaluated; Inactive.
Test [7] deals with T4, Serine protease 1. Nature of the test: In vitro inhibition against human trypsin was evaluated; Inactive.
Test [8] has as its target T1, Coagulation factor X. In words: In vitro inhibition against human Factor Xa (FXa) was evaluated; Inactive.

T1 sequence (P00742 41-179 limits assumed): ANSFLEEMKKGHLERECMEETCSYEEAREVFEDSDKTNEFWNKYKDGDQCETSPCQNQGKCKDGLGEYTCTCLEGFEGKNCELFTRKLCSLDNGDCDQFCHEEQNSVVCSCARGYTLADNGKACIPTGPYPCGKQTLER
T1 sequence (P00742 235-488 limits assumed): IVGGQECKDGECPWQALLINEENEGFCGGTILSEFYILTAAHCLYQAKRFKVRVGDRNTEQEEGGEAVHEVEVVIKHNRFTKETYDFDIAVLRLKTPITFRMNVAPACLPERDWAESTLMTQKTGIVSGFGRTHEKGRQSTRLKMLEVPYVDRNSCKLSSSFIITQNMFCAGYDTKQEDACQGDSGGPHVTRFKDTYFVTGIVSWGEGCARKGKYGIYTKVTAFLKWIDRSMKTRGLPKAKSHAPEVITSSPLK
T4 sequence (P07477 whole entry): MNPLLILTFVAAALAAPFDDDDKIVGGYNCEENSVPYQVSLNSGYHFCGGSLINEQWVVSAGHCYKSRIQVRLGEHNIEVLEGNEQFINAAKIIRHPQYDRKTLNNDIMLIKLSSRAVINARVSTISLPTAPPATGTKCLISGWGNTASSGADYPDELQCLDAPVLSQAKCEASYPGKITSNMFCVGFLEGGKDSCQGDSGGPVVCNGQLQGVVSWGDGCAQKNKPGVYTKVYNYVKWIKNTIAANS
T2 sequence (P00747 97-580 limits assumed): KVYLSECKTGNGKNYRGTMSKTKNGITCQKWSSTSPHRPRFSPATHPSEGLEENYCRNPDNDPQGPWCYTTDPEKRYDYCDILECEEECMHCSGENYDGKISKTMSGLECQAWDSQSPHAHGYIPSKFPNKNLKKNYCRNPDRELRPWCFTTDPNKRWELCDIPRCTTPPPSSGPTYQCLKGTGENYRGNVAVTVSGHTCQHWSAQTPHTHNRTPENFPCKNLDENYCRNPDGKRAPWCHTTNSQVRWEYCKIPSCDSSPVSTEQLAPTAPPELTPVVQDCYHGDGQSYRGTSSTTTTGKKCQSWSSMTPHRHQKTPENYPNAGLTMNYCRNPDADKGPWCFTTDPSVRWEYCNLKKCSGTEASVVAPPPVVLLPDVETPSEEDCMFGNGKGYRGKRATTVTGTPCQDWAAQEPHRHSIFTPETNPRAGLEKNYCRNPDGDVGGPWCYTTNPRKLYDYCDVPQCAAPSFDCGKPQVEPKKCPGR
T2 sequence (P00747 581-810 limits assumed): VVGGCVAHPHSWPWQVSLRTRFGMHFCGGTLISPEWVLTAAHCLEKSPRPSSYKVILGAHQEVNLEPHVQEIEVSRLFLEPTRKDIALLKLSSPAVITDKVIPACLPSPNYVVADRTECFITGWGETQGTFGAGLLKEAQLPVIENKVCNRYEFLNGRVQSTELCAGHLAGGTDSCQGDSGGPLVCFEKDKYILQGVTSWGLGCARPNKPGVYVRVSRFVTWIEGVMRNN

What is called IC50 is the concentration that gives 50% inhibition. High values mean weaker potency in that assay, low ones greater potency in that assay. For `N=C(N)N1CCC[C@H](NC(=O)CNC(=O)[C@@H](CCNC(=O)c2cnc3ccccc3c2)NC(=O)OCc2ccccc2)C1O` (some centres undefined), the IC50 in test [1] was 169 nM; in test [2], 1140 nM; in test [3] it was over 2500 nM; in test [4], 20.4 nM.
As to `N=C(N)N1CCC[C@H](NC(=O)CNC(=O)[C@@H](CCNC(=O)c2cn[nH]c2)NC(=O)OCc2ccccc2)C1O` (some centres undefined), the half-inhibitory concentration (IC50) is 346 nM in test [1], 3270 nM in test [2], over 2500 nM in test [3] and 74.5 nM in test [4].
The matching figures for `N=C(N)N1CCC[C@H](NC(=O)CNC(=O)[C@@H](CCCNC(=O)c2cnccn2)NS(=O)(=O)Cc2ccccc2)C1O` (some centres undefined): 15 nM, 673 nM, 2500 nM and 324 nM.
As for `Cc1cnc(C(=O)NCC[C@@H](NC(=O)OCc2ccccc2)C(=O)NCC(=O)N[C@H]2CCCN(C(=N)N)C2O)cn1` (some centres undefined), the IC50 in test [1] was 232 nM; in test [2] it was over 2500 nM; in test [3], over 2500 nM; in test [4], 40.3 nM.
With `N=C(N)N1CCC[C@H](NC(=O)CNC(=O)[C@@H](CCNC(=O)c2nccc3ccccc23)NS(=O)(=O)Cc2ccccc2)C1O` (some centres undefined), the IC50 in test [1] is 4.9 nM; in test [2], 730 nM; in test [3], over 2500 nM; in test [4], 97.8 nM.
`N=C(N)N1CCC[C@H](NC(=O)CNC(=O)[C@@H](CCNC(=O)c2cnnc3ccccc23)NS(=O)(=O)Cc2ccccc2)C1O` (some centres undefined): the IC50 in test [1] came out at 5.6 nM; in test [2] it was 700 nM; in test [3], 1770 nM; in test [4], 4.21 nM.
Regarding `N=C(N)N1CCC[C@H](NC(=O)CNC(=O)[C@@H](CNC(=O)c2cnccn2)NS(=O)(=O)Cc2ccccc2)C1O` (some centres undefined), the IC50 in test [1] was 311 nM; in test [2] it was 1480 nM; in test [3], over 2500 nM; in test [4], 152 nM.
For the compound `N=C(N)N1CCC[C@H](NC(=O)CNC(=O)[C@@H](CCNC(=O)c2ccc(O)nc2)NS(=O)(=O)Cc2ccccc2)C1O` (some centres undefined), the IC50 was 6.1 nM in test [1], 367 nM in test [2], over 2500 nM in test [3] and 26.6 nM in test [4].
On to `N=C(N)N1CCC[C@H](NC(=O)CNC(=O)[C@@H](CCNC(=O)c2ccc3ccccc3n2)NS(=O)(=O)Cc2ccccc2)C1O` (some centres undefined), for which the IC50 in test [1] was 44.4 nM; in test [2], 1440 nM; in test [3] it was 1270 nM; in test [4], 59.2 nM.
For `N=C(N)N1CCC[C@H](NC(=O)CNC(=O)[C@@H](CCNC(=O)c2cncc(Br)c2)NS(=O)(=O)Cc2ccccc2)C1O` (some centres undefined), in that order: 10.6 nM, 1060 nM, over 2500 nM and 160 nM.
For `N=C(N)N1CCC[C@H](NC(=O)CNC(=O)[C@@H](CCNC(=O)c2cncc(Br)c2)NC(=O)OCc2ccccc2)C1O` (some centres undefined), the IC50 in test [1] is 313 nM; in test [2], over 2500 nM; in test [3] it was over 2500 nM; in test [4], over 31.2 nM.
Take `N=C(N)N1CCC[C@H](NC(=O)CNC(=O)[C@@H](CCNC(=O)c2ccccc2)NS(=O)(=O)Cc2ccccc2)C1O` (some centres undefined): the IC50 result in test [5], in test [6], in test [7] and in test [8] was “Not Active” throughout.
With `N=C(N)NCCCC(NS(=O)(=O)Cc1ccccc1)C(=O)NCC(=O)N[C@H]1CCCN(C(=N)N)C1O` (some centres undefined), the IC50 in test [1] is 0.7 nM; in test [3], over 2500 nM; in test [4], 75 nM.
Turning to `N=C(N)N1CCC[C@H](NC(=O)CNC(=O)[C@@H](CCNC(=O)c2cccnc2)NS(=O)(=O)Cc2ccccc2)C1O` (some centres undefined), the IC50 in test [1] was 79.1 nM; in test [2], 2500 nM; in test [3] it was over 2500 nM; in test [4], 561 nM.
For `N=C(N)N1CCC[C@H](NC(=O)CNC(=O)[C@@H](CCNC(=O)c2ccccn2)NS(=O)(=O)Cc2ccccc2)C1O` (some centres undefined), in that order: 20.5 nM, 1140 nM, over 2500 nM and 223 nM.
For `N=C(N)N1CCC[C@H](NC(=O)CNC(=O)[C@@H](CCNC(=O)c2nccc3ccccc23)NC(=O)OCc2ccccc2)C1O` (some centres undefined), in that order: 313 nM, over 2500 nM, over 2500 nM and over 2500 nM.
Regarding `N=C(N)N1CCC[C@H](NC(=O)CNC(=O)[C@@H](CCNC(=O)c2cnccn2)NS(=O)(=O)Cc2ccccc2)C1O` (some centres undefined), the IC50 was 5 nM in test [1], 521 nM in test [2], over 2500 nM in test [3] and 166 nM in test [4].
Take `N=C(N)N1CCC[C@H](NC(=O)CNC(=O)[C@@H](CCNC(=O)c2cnc3ccccc3c2)NS(=O)(=O)Cc2ccccc2)C1O` (some centres undefined): the IC50 in test [1] came to 10.6 nM; in test [2], 250 nM; in test [3], 537 nM; in test [4], 111 nM.
For `N=C(N)N1CCC[C@H](NC(=O)CNC(=O)[C@@H](CCNC(=O)c2cnccn2)NC(=O)OCc2ccccc2)C1O` (some centres undefined), the IC50 in test [1] amounted to 106 nM; in test [2], 2030 nM; in test [3] it was 2500 nM; in test [4] it was 30 nM.
Consider `N=C(N)N1CCC[C@H](NC(=O)CNC(=O)[C@@H](CCNC(=O)c2nc3ccccc3nc2O)NS(=O)(=O)Cc2ccccc2)C1O` (some centres undefined), for which the IC50 in test [1] was over 2500 nM; in test [6], “Not Active”; in test [7] it was “Not Active”; in test [3], over 2500 nM.
